Drawing on patent US12559506B2, “Indazole based compounds and associated methods of use” (Arvinas Operations, Inc., priority 2021, dated 2026), this text covers Dmax and DC50 for 16 compounds.

Where two headings read alike, the source gives them in different places.

The experiment concerns the target T1, LRRK2 (endogenous, HiBit tagged) (Homo sapiens, UniProt Q5S007).
T1 construct: endogenous in cells; host or cells: HEK293 cells with HiBit knock-in at the endogenous LRRK2 locus, stably expressing firefly luciferase
Description: Endogenous LRRK2 degradation assay, endogenous gene C-terminally HiBit-tagged in HEK293 cells (Nano-Glo Dual Luciferase). The format is cell-based. The method in brief:
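LRRK2-HiBit quantified via Nano-Glo Dual Luciferase in HEK293 knock-in cells co-expressing firefly luciferase, after 24 h exposure to compound (1 μM final top, 1:3, 11 points). Values normalised to DMSO median per plate and curve-fitted; Alamar Blue viability run alongside.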

Where [1] appears, read: endogenous HiBit-tagged LRRK2 in HEK293 cells, 24 hours treatment, read-out: **Endogenous WT Dmax (%).
Where [2] appears, read: endogenous HiBit-tagged LRRK2 in HEK293 cells, 24 hours treatment, read-out: *Endogenous WT DC50.
The mark [3] stands for this setting: endogenous HiBit-tagged LRRK2 in HEK293 cells, 24 hours treatment, read-out: Endogenous WT DC50.
Setting [4] is: endogenous HiBit-tagged LRRK2 in HEK293 cells, 24 hours treatment, read-out: Endogenous WT Dmax.

T1 sequence (Q5S007 whole entry): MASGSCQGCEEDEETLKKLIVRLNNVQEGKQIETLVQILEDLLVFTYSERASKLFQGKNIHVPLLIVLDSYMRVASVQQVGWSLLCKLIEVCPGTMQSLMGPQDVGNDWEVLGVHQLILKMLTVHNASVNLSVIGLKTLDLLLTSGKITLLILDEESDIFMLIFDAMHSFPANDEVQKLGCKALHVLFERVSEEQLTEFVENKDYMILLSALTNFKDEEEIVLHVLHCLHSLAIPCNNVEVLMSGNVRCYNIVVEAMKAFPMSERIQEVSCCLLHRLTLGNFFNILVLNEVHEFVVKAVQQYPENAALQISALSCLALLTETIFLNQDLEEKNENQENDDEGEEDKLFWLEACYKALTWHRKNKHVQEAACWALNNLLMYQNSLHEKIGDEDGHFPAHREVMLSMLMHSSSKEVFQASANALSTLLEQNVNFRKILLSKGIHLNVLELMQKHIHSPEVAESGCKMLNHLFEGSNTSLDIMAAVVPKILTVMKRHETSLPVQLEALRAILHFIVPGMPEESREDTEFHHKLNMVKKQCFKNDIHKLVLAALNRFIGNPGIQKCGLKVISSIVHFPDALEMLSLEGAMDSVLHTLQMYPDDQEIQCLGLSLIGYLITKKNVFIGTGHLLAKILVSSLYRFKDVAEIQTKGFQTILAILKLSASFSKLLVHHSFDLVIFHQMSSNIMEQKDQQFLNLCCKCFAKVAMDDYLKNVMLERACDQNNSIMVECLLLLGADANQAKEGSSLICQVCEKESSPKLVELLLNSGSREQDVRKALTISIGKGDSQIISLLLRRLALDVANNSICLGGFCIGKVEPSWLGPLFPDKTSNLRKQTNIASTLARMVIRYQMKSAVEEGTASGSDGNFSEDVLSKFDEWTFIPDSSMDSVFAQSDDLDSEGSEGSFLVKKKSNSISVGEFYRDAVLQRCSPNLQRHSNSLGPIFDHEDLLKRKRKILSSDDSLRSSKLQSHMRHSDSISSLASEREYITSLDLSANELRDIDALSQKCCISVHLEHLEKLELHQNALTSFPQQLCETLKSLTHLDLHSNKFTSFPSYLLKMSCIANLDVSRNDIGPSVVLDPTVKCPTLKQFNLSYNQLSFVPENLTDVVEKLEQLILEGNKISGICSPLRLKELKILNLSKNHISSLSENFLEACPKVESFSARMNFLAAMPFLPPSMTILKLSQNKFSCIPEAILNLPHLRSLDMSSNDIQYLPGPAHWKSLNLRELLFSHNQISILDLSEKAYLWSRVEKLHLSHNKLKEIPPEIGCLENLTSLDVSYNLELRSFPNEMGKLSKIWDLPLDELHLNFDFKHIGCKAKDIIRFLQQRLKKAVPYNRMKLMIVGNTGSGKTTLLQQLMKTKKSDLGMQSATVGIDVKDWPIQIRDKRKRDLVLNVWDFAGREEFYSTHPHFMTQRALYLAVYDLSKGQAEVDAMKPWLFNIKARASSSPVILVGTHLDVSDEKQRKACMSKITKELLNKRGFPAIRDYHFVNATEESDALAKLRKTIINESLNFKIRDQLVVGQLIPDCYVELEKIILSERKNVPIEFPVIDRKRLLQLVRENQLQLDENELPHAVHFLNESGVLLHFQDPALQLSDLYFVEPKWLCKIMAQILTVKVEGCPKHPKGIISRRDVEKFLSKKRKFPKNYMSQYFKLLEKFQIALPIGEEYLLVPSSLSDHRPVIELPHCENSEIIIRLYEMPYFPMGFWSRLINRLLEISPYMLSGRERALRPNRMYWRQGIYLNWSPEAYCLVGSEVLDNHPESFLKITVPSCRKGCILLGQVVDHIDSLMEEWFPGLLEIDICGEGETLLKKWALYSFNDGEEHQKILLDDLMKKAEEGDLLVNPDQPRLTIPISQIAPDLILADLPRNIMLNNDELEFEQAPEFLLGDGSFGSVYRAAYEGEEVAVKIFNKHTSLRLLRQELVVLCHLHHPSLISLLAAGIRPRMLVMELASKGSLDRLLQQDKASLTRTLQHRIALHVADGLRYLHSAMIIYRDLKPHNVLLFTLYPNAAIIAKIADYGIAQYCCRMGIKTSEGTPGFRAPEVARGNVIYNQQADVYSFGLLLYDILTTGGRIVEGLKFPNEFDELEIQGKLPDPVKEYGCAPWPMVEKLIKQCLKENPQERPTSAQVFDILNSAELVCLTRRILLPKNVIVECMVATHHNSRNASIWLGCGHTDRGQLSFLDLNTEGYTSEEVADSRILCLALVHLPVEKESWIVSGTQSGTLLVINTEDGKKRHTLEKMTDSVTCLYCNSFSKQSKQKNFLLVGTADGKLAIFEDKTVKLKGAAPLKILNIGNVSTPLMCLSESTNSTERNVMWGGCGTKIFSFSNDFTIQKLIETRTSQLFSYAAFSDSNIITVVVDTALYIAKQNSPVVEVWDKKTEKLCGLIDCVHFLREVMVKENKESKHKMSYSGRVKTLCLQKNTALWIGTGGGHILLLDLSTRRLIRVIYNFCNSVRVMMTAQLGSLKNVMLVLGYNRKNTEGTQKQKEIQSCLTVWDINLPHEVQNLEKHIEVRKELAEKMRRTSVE

`C[C@@H]1CN(CC2CCN(c3cc(-c4n[nH]c5cnc(OC6(C)CC6)cc45)ncn3)CC2)CCN1CC1CCN(c2ccc3c(c2F)CN(C2CCC(=O)NC2=O)C3=O)CC1` (stereo partly drawn) [Compound 272, 3-[4-fluoro-5-(4-{[(2R)-2-methyl-4-[(1-{6-[5-(1-methylcyclopropoxy)-1H-pyrazolo[3,4-c]pyridin-3-yl]pyrimidin-4-yl}piperidin-4-yl)methyl]piperazin-1-yl]methyl}piperidin-1-yl)-1-oxo-2,3-dihydro-1H-isoindol-2-yl]piperidine-2,6-dione]: the Dmax under setting [1] is 50 to 70%. Besides, under setting [2], the half-maximal degradation concentration (DC50) is under 0.01 µM.
In the case of `CC1(Oc2ccc3[nH]nc(-c4cc(N5CCC(O[C@H]6CC[C@H](CN7CCN(c8ccc9c(c8F)CN(C8CCC(=O)NC8=O)C9=O)CC7(C)C)CC6)CC5)ncn4)c3c2)CC1` (some centres unmarked) [Compound 361, 3-[5-(3,3-dimethyl-4-{[(1r,4r)-4-[(1-{6-[5-(1-methylcyclopropoxy)-1H-indazol-3-yl]pyrimidin-4-yl}piperidin-4-yl)oxy]cyclohexyl]methyl}piperazin-1-yl)-4-fluoro-1-oxo-2,3-dihydro-1H-isoindol-2-yl]piperidine-2,6-dione], the DC50 under setting [3] is under 0.01 µM. In addition, the Dmax under setting [4] lay in the range of 50 to 70%.
In the case of `C[C@H]1CN(c2cc(-c3n[nH]c4ccc(OC5(C)CC5)cc34)ncn2)CCN1C[C@H]1CC[C@H](OC2CCN(c3ccc4c(c3F)CN(C3CCC(=O)NC3=O)C4=O)CC2)CC1` (stereo partly drawn) [Compound 348, 3-(4-fluoro-5-(4-(((1s,4r)-4-(((S)-2-methyl-4-(6-(5-(1-methylcyclopropoxy)-1H-indazol-3-yl)pyrimidin-4-yl)piperazin-1-yl)methyl)cyclohexyl)oxy)piperidin-1-yl)-1-oxoisoindolin-2-yl)piperidine-2,6-dione], the Dmax under setting [1] fell in the range of 50 to 70%. For the same compound, the DC50 under setting [2] was under 0.01 µM.
As for `COc1c(N2CCC(O[C@H]3CC[C@H](OC4CCN(c5cc(-c6n[nH]c7cnc(OC8(C)CC8)cc67)ncn5)CC4)CC3)CC2)ccc2c1CN(C1CCC(=O)NC1=O)C2=O` (some centres unmarked) [Compound 380, 3-[4-methoxy-1-oxo-5-(4-{[(1r,4r)-4-[(1-{6-[5-(1-methylcyclopropoxy)-1H-pyrazolo[3,4-c]pyridin-3-yl]pyrimidin-4-yl}piperidin-4-yl)oxy]cyclohexyl]oxy}piperidin-1-yl)-2,3-dihydro-1H-isoindol-2-yl]piperidine-2,6-dione], the DC50 under setting [3] is under 0.01 µM. Besides, the Dmax under setting [4] fell in the range of 50 to 70%.
On to `COc1cc2c(cc1N1CCC(CN3CCN(CC4CCN(c5cc(-c6n[nH]c7ccc(OC8(C)CC8)cc67)ncn5)CC4)CC3)CC1)CN(C1CCC(=O)NC1=O)C2=O` (centres unmarked) [Compound 194, 3-[6-methoxy-5-[4-[[4-[[1-[6-[5-(1-methylcyclopropoxy)-1H-indazol-3-yl]pyrimidin-4-yl]-4-piperidyl]methyl]piperazin-1-yl]methyl]-1-piperidyl]-1-oxo-isoindolin-2-yl]piperidine-2,6-dione], for which, under “endogenous HiBit-tagged LRRK2, HEK293 cells, 24 hours, read-out: **Endogenous WT Dmax (%)”, the maximal degradation (Dmax) was at least 70%. For the same compound, where the note is “endogenous HiBit-tagged LRRK2, HEK293 cells, 24 hours, read-out: *Endogenous WT DC50”, the DC50 was under 0.01 µM.
As to `Cc1c(N2CCC(O[C@H]3CC[C@H](CN4CCN(c5cc(-c6n[nH]c7ccc(OC8(C)CC8)cc67)ncn5)CC4)CC3)CC2)ccc2c1CN(C1CCC(=O)NC1=O)C2=O` (some centres unmarked) [Compound 333, 3-(4-methyl-5-(4-(((1r,4r)-4-((4-(6-(5-(1-methylcyclopropoxy)-1H-indazol-3-yl)pyrimidin-4-yl)piperazin-1-yl)methyl)cyclohexyl)oxy)piperidin-1-yl)-1-oxoisoindolin-2-yl)piperidine-2,6-dione], the Dmax under setting [1] is 50 to 70%. For the same compound, the DC50 under setting [2] is under 0.01 µM.
As for `CC1(Oc2ccc3[nH]nc(-c4cc(N5CCN(CC6(F)CCN(CC7CCN(c8c(F)cc9c(c8F)CN(C8CCC(=O)NC8=O)C9=O)CC7)CC6)CC5)ncn4)c3c2)CC1` (centres unmarked) [Compound 220, 3-{4,6-difluoro-5-[4-({4-fluoro-4-[(4-{6-[5-(1-methylcyclopropoxy)-1H-indazol-3-yl]pyrimidin-4-yl}piperazin-1-yl)methyl]piperidin-1-yl}methyl)piperidin-1-yl]-1-oxo-2,3-dihydro-1H-isoindol-2-yl}piperidine-2,6-dione], the DC50 under setting [3] was under 0.01 µM. Under setting [4], the Dmax was in the range of 50 to 70%.
Consider `C[C@@H]1CN(CC2CCN(c3ccc4c(c3F)CN(C3CCC(=O)NC3=O)C4=O)CC2)CCN1CC1CCN(c2cc(-c3n[nH]c4cnc(OC5(C)CC5)cc34)ncn2)CC1` (stereo partly drawn) [Compound 263, 3-[4-fluoro-5-(4-{[(3R)-3-methyl-4-[(1-{6-[5-(1-methylcyclopropoxy)-1H-pyrazolo[3,4-c]pyridin-3-yl]pyrimidin-4-yl}piperidin-4-yl)methyl]piperazin-1-yl]methyl}piperidin-1-yl)-1-oxo-2,3-dihydro-1H-isoindol-2-yl]piperidine-2,6-dione], for which the Dmax under setting [1] is at least 70%. The DC50 under setting [2] is under 0.01 µM.
As to `CC1(Oc2ccc3n[nH]c(-c4cc(N5CCC(CN6CCN(CC7CCN(c8c(F)ccc9c8CN(C8CCC(=O)NC8=O)C9=O)CC7)CC6)CC5)ncn4)c3c2)CC1` (centres unmarked) [Compound 217, 3-[5-fluoro-4-[4-[[4-[[1-[6-[5-(1-methylcyclopropoxy)-2H-indazol-3-yl]pyrimidin-4-yl]-4-piperidyl]methyl]piperazin-1-yl]methyl]-1-piperidyl]-1-oxo-isoindolin-2-yl]piperidine-2,6-dione], under setting [3], the DC50 was in the range of 0.01 to 0.05 µM. Also, the Dmax under setting [4] fell in the range of 50 to 70%.
On the same counts, the results for `CC1(Oc2cc3c(-c4cc(N5CCC(O[C@H]6C[C@@H](OC7CCN(c8ccc9c(c8F)CN(C8CCC(=O)NC8=O)C9=O)CC7)C6)CC5)ncn4)n[nH]c3cn2)CC1` (some centres unmarked) [Compound 233, 3-(4-fluoro-1-oxo-5-{4-[(1s,3s)-3-[(1-{6-[5-(1-methylcyclopropoxy)-1H-pyrazolo[3,4-c]pyridin-3-yl]pyrimidin-4-yl}piperidin-4-yl)oxy]cyclobutoxy]piperidin-1-yl}-2,3-dihydro-1H-isoindol-2-yl)piperidine-2,6-dione] are under 0.01 µM and 50 to 70%.
As to `C[C@@H]1CN(c2cc(-c3n[nH]c4ccc(OC5(C)CC5)cc34)ncn2)C[C@H](C)N1C[C@H]1CC[C@H](OC2CCN(c3ccc4c(c3F)CN(C3CCC(=O)NC3=O)C4=O)CC2)CC1` (stereo partly drawn) [Compound 352, 3-[4-fluoro-1-oxo-5-(4-{[(1r,4r)-4-{[(2R,6S)-2,6-dimethyl-4-{6-[5-(1-methylcyclopropoxy)-1H-indazol-3-yl]pyrimidin-4-yl}piperazin-1-yl]methyl}cyclohexyl]oxy}piperidin-1-yl)-2,3-dihydro-1H-isoindol-2-yl]piperidine-2,6-dione], under setting [1], the Dmax is 50 to 70%. In addition, the DC50 under setting [2] is under 0.01 µM.
For the compound `CC1(Oc2cc3c(-c4cc(N5CCN(C[C@H]6CC[C@H](OC7CCN(c8ccc9c(c8F)CN(C8CCC(=O)NC8=O)C9=O)CC7)CC6)CC5)ncn4)n[nH]c3cn2)CC1` (some centres unmarked) [Compound 258, 3-[4-fluoro-1-oxo-5-(4-{[(1r,4r)-4-[(4-{6-[5-(1-methylcyclopropoxy)-1H-pyrazolo[3,4-c]pyridin-3-yl]pyrimidin-4-yl}piperazin-1-yl)methyl]cyclohexyl]oxy}piperidin-1-yl)-2,3-dihydro-1H-isoindol-2-yl]piperidine-2,6-dione], the maximal degradation (Dmax) under setting [1] lay within 50 to 70%. For the same compound, under setting [2], the DC50 is under 0.01 µM.
On the same counts, the results for `CC1(Oc2ccc3[nH]nc(-c4cc(N5CCC(CN6CC[C@@H](OC7CCN(c8ccc9c(c8F)CN(C8CCC(=O)NC8=O)C9=O)CC7)CC6(C)C)CC5)ncn4)c3c2)CC1` (stereo partly drawn) [Compound 310, 3-[5-(4-{[(4R)-2,2-dimethyl-1-[(1-{6-[5-(1-methylcyclopropoxy)-1H-indazol-3-yl]pyrimidin-4-yl}piperidin-4-yl)methyl]piperidin-4-yl]oxy}piperidin-1-yl)-4-fluoro-1-oxo-2,3-dihydro-1H-isoindol-2-yl]piperidine-2,6-dione] are 50 to 70% and under 0.01 µM.
On the same counts, the results for `CC1(Oc2ccc3[nH]nc(-c4cc(N5CCN(C[C@@H]6CC[C@@H](CN7CCN(c8ccc9c(c8F)CN(C8CCC(=O)NC8=O)C9=O)CC7)OC6)CC5)ncn4)c3c2)CC1` (single isomer, unassigned) [Compound 305] are 50 to 70% and under 0.01 µM.
On the same counts, the results for `COc1c(N2CCC(O[C@H]3C[C@H](CN4CCN(c5cc(-c6[nH]nc7ccc(OC8(C)CC8)cc67)ncn5)CC4)C3)CC2)ccc2c1CN(C1CCC(=O)NC1=O)C2=O` (some centres unmarked) [Compound 293, 3-(4-methoxy-1-oxo-5-{4-[(1r,3r)-3-[(4-{6-[5-(1-methylcyclopropoxy)-2H-indazol-3-yl]pyrimidin-4-yl}piperazin-1-yl)methyl]cyclobutoxy]piperidin-1-yl}-2,3-dihydro-1H-isoindol-2-yl)piperidine-2,6-dione] are 50 to 70% and under 0.01 µM.
For `CC1(Oc2ccc3n[nH]c(-c4cc(N5CCC(COC6CCN(C(=O)C7CCN(c8ccc9c(c8)C(=O)N(C8CCC(=O)NC8=O)C9=O)CC7)CC6)CC5)ncn4)c3c2)CC1` (centres unmarked) [Compound 62, 2-(2,6-dioxo-3-piperidyl)-5-[4-[4-[[1-[6-[5-(1-methylcyclopropoxy)-2H-indazol-3-yl]pyrimidin-4-yl]-4-piperidyl]methoxy]piperidine-1-carbonyl]-1-piperidyl]isoindoline-1,3-dione], the Dmax (endogenous HiBit-tagged LRRK2 in HEK293 cells, 24 hours, read-out: **Endogenous WT Dmax (%)) was at least 70%. Further, the half-maximal degradation concentration (DC50) (endogenous HiBit-tagged LRRK2 in HEK293 cells, 24 hours, read-out: *Endogenous WT DC50) was under 0.01 µM.
